{"source": "patent US20100297020A1", "about": "“PHOSPHORYLATED AND PHOSPHONATED PYRONE ANALOGS FOR THERAPEUTIC TREATMENT” (Limerick Biopharma, Inc., priority 2008, published 2010)", "key": {"[1]": {"test": "Stability in water at about pH 8", "details": "water at about pH 8, 24 hours, ambient temperature", "protocol": "Quercetin-3′-O-phosphate is dissolved in water at about pH 8.\nFisetin-3′-O-phosphate is dissolved in water at about pH 8.\nQuercetin-3′-O-methylphosphonate (Compound 2) is dissolved in water at about pH 8."}, "[2]": {"test_system": "BB19 cells, human BCECs (brain capillary endothelial cells)", "test": "Tacrolimus uptake assay", "format": "cell-based", "details": "Endothelial cell, 1 h, 0.1 μM test compound, 1 hour incubation, 3H-tacrolimus 34 nM, read-out: cell associated ^3H-tacrolimus uptake, % of control", "description": "BB19 cells, human BCECs (brain capillary endothelial cells) immortalized with the E6E7 genes of human papilloma virus, were kindly provided from Jacques G. Prudhomme, Department of Biology, University of California, Riverside, U.S.A. The cells were cultured as monolayer culture in Amniomax™-C100 basal medium (catalog number 17001-157) with Amniomax™-C100 supplement (catalog number 12556-049) (Invitrogen, Basel, CH).\nCells were seeded onto culture surfaces precoated with 10 μg/cm^2 rat tail collagen type I (BD Bioscience, Allschwil, CH) at a density of approximately 50′000 cells/cm^2 and were cultured in an incubator at 37° C. with 5% CO2, 95% fresh air and saturated humidity. For uptake assays, cells were seeded on precoated 96-well plates. Assays were performed at confluency, after 6 days in culture.\nBB19 cells were seeded 50′000 cells/cm^2 on 96-well plates (Falcon) and incubated under condition described above for 6 days. Before starting the assay, cells were washed 2 times with pre-warmed Dulbecco's MEM with Glutamax-I (catalog number 61965) (Invitrogen AG, Basel, CH), supplemented with 1% non essential amino acids, 1% sodium pyruvate, 50 μg/ml gentamycin (Invitrogen AG) (DMEM). Cells were then incubated for 15 min at 37° C. and 120 rpm in DMEM with or without the specified concentrations of test compounds under investigation. After this pre-incubation, cells were incubated in DMEM containing [propyl-3H]-dihydro-FK506 (3H-tacrolimus, 1 μCi/ml, 34 nM) and with or without the specified concentrations of test compounds for 1 hour at 37° C. and 120 rpm. During this 1-hour incubation period, influx and efflux of the substrate, ^3H-tacrolimus, occur. After the 1-hour incubation period, assay was terminated by placing the assay plate on ice and washing the cells twice with ice-cold DMEM. Determination of cell associated ^3H-tacrolimus was performed by addition of Insta Gel and scintillation liquid to trypsinized cells followed by analysis on a scintillation counter (Packard TriCarb2000, Can berra Packard S.A.). The results are expressed as: % of control=100×[^3H-tacrolimus conc. with test compound]/[^3H-tacrolimus conc. with vehicle]"}, "[3]": {"test_system": "rats treated with tacrolimus", "test": "Renal pathology in rats co-administered with tacrolimus", "format": "in vivo", "details": "tacrolimus 0.5 mg/kg with vehicle or with Compound 2 at 11, 28 and 114 mg/kg, 25 days", "description": "Tissue is removed from the kidney of rats treated with tacrolimus (Prograf®) at 0.5 mg/kg and inert vehicle, and from rats treated with tacrolimus (Prograf®) at 0.5 mg/kg and quercetin-3′-O-methylphosphonate (Compound 2) at 11 mg/kg, 28 mg/kg, and at 114 mg/kg for 25 days. […] The tissue from rats treated with Compound 2 and tacrolimus show no vacuoles."}, "[4]": {"test_system": "rats treated with tacrolimus", "test": "Blood glucose in rats co-administered with tacrolimus", "format": "in vivo", "details": "tacrolimus 0.5 mg/kg i.p. day 1-25; Compound 2 114 mg/kg i.p. day 11-25"}, "ZDF rats": {"test_system": "ZDF rats", "test": "Oral glucose tolerance test (OGTT) in ZDF rats after the 4 week study", "format": "in vivo", "details": "glucose 2 g/Kg PO; compound 2 100 mg/kg, compound 3 50 mg/kg i.p.", "description": "Following the 4 week study described in Example 26 above, the animals were fasted for 12 hours and on day-29, pre-drug blood samples are collected and glucose level and insulin level are measured. The animals are treated intraperitoneally (i.p.) with the following compounds:\nThirty (30) minutes after the treatment, pre-glucose blood samples are collected and the animals are then dosed with glucose (2 g/Kg, PO). Tail vein blood samples are collected at 30, 60, 90 and 120 minutes. Glucose levela and insulin leveal are measured. FIG. 31 show the plasma glucose level measured during OGTT. […] FIG. 32 show the plasma insulin level measured during OGTT. Phosphonated pyrone analogs raise insulin output in response to OGTT."}}}
{"smiles": "O=c1c(O)c(-c2ccc(O)c(OCP(=O)(O)O)c2)oc2cc(O)cc(O)c12", "note": "[Compound 2, Quercetin-3′-O-methylphosphonic acid]", "values": [{"measurement": "degradation seen by NMR", "setting": "[1]", "value": "no degradation"}, {"measurement": "activity at 0.1 µM", "setting": "[2]", "value": 51, "unit": "%"}, {"measurement": "vacuolation of kidney tissue", "setting": "[3]", "value": "no vacuoles"}, {"measurement": "blood glucose level (tacrolimus induced hyperglycemia)", "setting": "[4]", "value": "attenuate tacrolimus induced hyperglycemia"}, {"measurement": "plasma glucose level during OGTT", "setting": "ZDF rats", "value": "protect against hyperglycemia"}]}
